Results from US20240409585A1, “MACROCYCLIC IMMUNOMODULATORS” (priority 2021, published 2024).
Bridge positions count the residues as written; N and C are the ends. Square brackets hold non-standard residues; d marks the D form. Peptide text beside a SMILES is read from it. * marks the point of attachment. Tyr(3-NO2) = N[C@@H](Cc1ccc(O)c([N+](=O)[O-])c1)C(=O)O; Phe(4-(3-Py)) = N[C@@H](Cc1ccc(-c2cccnc2)cc1)C(=O)O; dPhe(4-NO2) = N[C@H](Cc1ccc([N+](=O)[O-])cc1)C(=O)O; Trp(7-Cl) = N[C@@H](Cc1c[nH]c2c(Cl)cccc12)C(=O)O; Phe(4-CONH2) = NC(=O)c1ccc(C[C@H](N)C(=O)O)cc1; Trp(7-Me) = Cc1cccc2c(C[C@H](N)C(=O)O)c[nH]c12; dPhe(3,4-F2) = N[C@H](Cc1ccc(F)c(F)c1)C(=O)O; dPhe(4-CN) = N#Cc1ccc(C[C@@H](N)C(=O)O)cc1; Bip = N[C@@H](Cc1ccc(-c2ccccc2)cc1)C(=O)O; Tyr(3-I) = N[C@@H](Cc1ccc(O)c(I)c1)C(=O)O; Phe(4-CN) = N#Cc1ccc(C[C@H](N)C(=O)O)cc1; hTyr = N[C@@H](CCc1ccc(O)cc1)C(=O)O; 3Pal = N[C@@H](Cc1cccnc1)C(=O)O; d3Pal = N[C@H](Cc1cccnc1)C(=O)O; Carboxymethyl = O=C(O)C*; NMeA = CN[C@@H](C)C(=O)O

Target: T1, PE-labeled human PD-L1-Ig binding to Jurkat cell line over-expressing human PD-1 (Jurkat-PD-1) (Homo sapiens, UniProt Q15116)
T1 construct: expressed in transfected cells; host or cells: Jurkat
Assay: Jurkat-PD-1 Cell Binding High-Content Screening Assay (CBA): Method 1
Conditions: Jurkat-hPD-1 cells, PE-labeled PD-L1-Ig 20 nM final; read-out: Jurkat HPDL1 PD1 IC50 (uM) (Method 1)

T1 sequence (Q15116 25-288): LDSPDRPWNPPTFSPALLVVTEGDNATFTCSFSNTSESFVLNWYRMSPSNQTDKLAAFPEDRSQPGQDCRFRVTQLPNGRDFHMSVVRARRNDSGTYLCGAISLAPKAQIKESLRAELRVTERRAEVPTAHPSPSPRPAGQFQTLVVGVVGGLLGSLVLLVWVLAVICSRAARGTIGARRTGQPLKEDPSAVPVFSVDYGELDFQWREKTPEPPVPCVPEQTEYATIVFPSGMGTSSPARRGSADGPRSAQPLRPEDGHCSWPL

IC50 [µM] | Structure (SMILES)
0.77 | CC(C)C[C@@H]1NC(=O)[C@H](CCCNC(=N)N)NC(=O)[C@@H](CC(C)C)NC(=O)[C@H](C)N(C)C(=O)[C@H](CCCNC(=N)N)NC(=O)[C@H](Cc2ccc(-c3ccccc3)cc2)NC(=O)[C@H](C(C)C)NC(=O)[C@H](Cc2c[nH]c3ccccc23)NC(=O)[C@H](CC(=O)O)NC(=O)[C@H](Cc2ccc(OCC(=O)O)cc2)NC(=O)[C@H](Cc2ccccc2)NC(=O)CSC[C@@H](C(=O)N[C@@H](C)C(N)=O)NC(=O)[C@H]([C@@H](C)O)NC(=O)[C@H](C(C)C)NC1=O [Compound 1094] ({CH2CO}-FY(Carboxymethyl)DWV[Bip]R[NMeA][dL]RLVTCA-NH2; thioether N-14)
0.29 | CC(C)C[C@@H]1NC(=O)[C@H](CCCNC(=N)N)NC(=O)[C@@H](CC(C)C)NC(=O)[C@H](C)N(C)C(=O)[C@H](CCCNC(=N)N)NC(=O)[C@H](Cc2ccc(-c3cccnc3)cc2)NC(=O)[C@H](C(C)C)NC(=O)[C@H](Cc2c[nH]c3ccccc23)NC(=O)[C@H](CC(=O)O)NC(=O)[C@H](Cc2ccc(O)cc2)NC(=O)[C@H](Cc2ccccc2)NC(=O)CSC[C@@H](C(=O)N[C@@H](C)C(N)=O)NC(=O)[C@H]([C@@H](C)O)NC(=O)[C@H](C(C)C)NC1=O [Compound 1096] ({CH2CO}-FYDWV[Phe(4-(3-Py))]R[NMeA][dL]RLVTCA-NH2; thioether N-14)
0.3 | CC(C)C[C@@H]1NC(=O)[C@H](CCCNC(=N)N)NC(=O)[C@@H](Cc2ccc([N+](=O)[O-])cc2)NC(=O)[C@H](C)N(C)C(=O)[C@H](CCCNC(=N)N)NC(=O)[C@H](Cc2ccc(-c3ccccc3)cc2)NC(=O)[C@H](C(C)C)NC(=O)[C@H](Cc2c[nH]c3ccccc23)NC(=O)[C@H](CC(=O)O)NC(=O)[C@H](Cc2ccc(O)cc2)NC(=O)[C@H](Cc2ccccc2)NC(=O)CSC[C@@H](C(=O)N[C@@H](C)C(N)=O)NC(=O)[C@H]([C@@H](C)O)NC(=O)[C@H](C(C)C)NC1=O [Compound 1102] ({CH2CO}-FYDWV[Bip]R[NMeA][dPhe(4-NO2)]RLVTCA-NH2; thioether N-14)
0.69 | CC(C)C[C@@H]1NC(=O)[C@H](CCCNC(=N)N)NC(=O)[C@@H](Cc2ccc(F)c(F)c2)NC(=O)[C@H](C)N(C)C(=O)[C@H](CCCNC(=N)N)NC(=O)[C@H](Cc2ccc(-c3ccccc3)cc2)NC(=O)[C@H](C(C)C)NC(=O)[C@H](Cc2c[nH]c3ccccc23)NC(=O)[C@H](CC(=O)O)NC(=O)[C@H](Cc2ccc(O)cc2)NC(=O)[C@H](Cc2ccccc2)NC(=O)CSC[C@@H](C(=O)N[C@@H](C)C(N)=O)NC(=O)[C@H]([C@@H](C)O)NC(=O)[C@H](C(C)C)NC1=O [Compound 1103] ({CH2CO}-FYDWV[Bip]R[NMeA][dPhe(3,4-F2)]RLVTCA-NH2; thioether N-14)
0.07 | CC(C)C[C@@H]1NC(=O)[C@H](CCCNC(=N)N)NC(=O)[C@@H](CC(C)C)NC(=O)[C@H](C)N(C)C(=O)[C@H](CCCNC(=N)N)NC(=O)[C@H](Cc2ccc(-c3ccccc3)cc2)NC(=O)[C@H](C(C)C)NC(=O)[C@H](Cc2c[nH]c3ccccc23)NC(=O)[C@H](CC(=O)O)NC(=O)[C@H](CCc2ccc(O)cc2)NC(=O)[C@H](Cc2ccccc2)NC(=O)CSC[C@@H](C(=O)N[C@@H](C)C(N)=O)NC(=O)[C@H]([C@@H](C)O)NC(=O)[C@H](C(C)C)NC1=O [Compound 1106] ({CH2CO}-F[hTyr]DWV[Bip]R[NMeA][dL]RLVTCA-NH2; thioether N-14)
0.07 | CC(C)C[C@@H]1NC(=O)[C@H](CCCNC(=N)N)NC(=O)[C@@H](Cc2ccc(C#N)cc2)NC(=O)[C@H](C)N(C)C(=O)[C@H](CCCNC(=N)N)NC(=O)[C@H](Cc2ccc(-c3ccccc3)cc2)NC(=O)[C@H](C(C)C)NC(=O)[C@H](Cc2c[nH]c3ccccc23)NC(=O)[C@H](CC(=O)O)NC(=O)[C@H](Cc2ccc(O)cc2)NC(=O)[C@H](Cc2ccccc2)NC(=O)CSC[C@@H](C(=O)N[C@@H](C)C(N)=O)NC(=O)[C@H]([C@@H](C)O)NC(=O)[C@H](C(C)C)NC1=O [Compound 1107] ({CH2CO}-FYDWV[Bip]R[NMeA][dPhe(4-CN)]RLVTCA-NH2; thioether N-14)

Second part, the compound before the results:

Structure (SMILES) | IC50 [µM]
CC(C)C[C@@H]1NC(=O)[C@H](CCCNC(=N)N)NC(=O)[C@@H](CC(C)C)NC(=O)[C@H](C)N(C)C(=O)[C@H](CCCNC(=N)N)NC(=O)[C@H](Cc2ccc(-c3ccccc3)cc2)NC(=O)[C@H](C(C)C)NC(=O)[C@H](Cc2c[nH]c3ccccc23)NC(=O)[C@H](CC(=O)O)NC(=O)[C@H](Cc2ccc(O)c([N+](=O)[O-])c2)NC(=O)[C@H](Cc2ccccc2)NC(=O)CSC[C@@H](C(=O)N[C@@H](C)C(N)=O)NC(=O)[C@H]([C@@H](C)O)NC(=O)[C@H](C(C)C)NC1=O [Compound 1095] ({CH2CO}-F[Tyr(3-NO2)]DWV[Bip]R[NMeA][dL]RLVTCA-NH2; thioether N-14) | 0.15
Cc1cccc2c(C[C@@H]3NC(=O)[C@H](CC(=O)O)NC(=O)[C@H](Cc4ccc(O)cc4)NC(=O)[C@H](Cc4ccccc4)NC(=O)CSC[C@@H](C(=O)N[C@@H](C)C(N)=O)NC(=O)[C@H]([C@@H](C)O)NC(=O)[C@H](C(C)C)NC(=O)[C@H](CC(C)C)NC(=O)[C@H](CCCNC(=N)N)NC(=O)[C@@H](CC(C)C)NC(=O)[C@H](C)N(C)C(=O)[C@H](CCCNC(=N)N)NC(=O)[C@H](Cc4ccc(-c5ccccc5)cc4)NC(=O)[C@H](C(C)C)NC3=O)c[nH]c12 [Compound 1097] ({CH2CO}-FYD[Trp(7-Me)]V[Bip]R[NMeA][dL]RLVTCA-NH2; thioether N-14) | 0.21
CC(C)C[C@@H]1NC(=O)[C@H](CCCNC(=N)N)NC(=O)[C@@H](CC(C)C)NC(=O)[C@H](C)N(C)C(=O)[C@H](CCCNC(=N)N)NC(=O)[C@H](Cc2ccc(-c3ccccc3)cc2)NC(=O)[C@H](C(C)C)NC(=O)[C@H](Cc2c[nH]c3c(Cl)cccc23)NC(=O)[C@H](CC(=O)O)NC(=O)[C@H](Cc2ccc(O)cc2)NC(=O)[C@H](Cc2ccccc2)NC(=O)CSC[C@@H](C(=O)N[C@@H](C)C(N)=O)NC(=O)[C@H]([C@@H](C)O)NC(=O)[C@H](C(C)C)NC1=O [Compound 1098] ({CH2CO}-FYD[Trp(7-Cl)]V[Bip]R[NMeA][dL]RLVTCA-NH2; thioether N-14) | 0.13
CC(C)C[C@@H]1NC(=O)[C@H](CCCNC(=N)N)NC(=O)[C@@H](CC(C)C)NC(=O)[C@H](C)N(C)C(=O)[C@H](CCCNC(=N)N)NC(=O)[C@H](Cc2ccc(-c3ccccc3)cc2)NC(=O)[C@H](C(C)C)NC(=O)[C@H](Cc2c[nH]c3ccccc23)NC(=O)[C@H](CC(=O)O)NC(=O)[C@H](Cc2ccc(C(N)=O)cc2)NC(=O)[C@H](Cc2ccccc2)NC(=O)CSC[C@@H](C(=O)N[C@@H](C)C(N)=O)NC(=O)[C@H]([C@@H](C)O)NC(=O)[C@H](C(C)C)NC1=O [Compound 1099] ({CH2CO}-F[Phe(4-CONH2)]DWV[Bip]R[NMeA][dL]RLVTCA-NH2; thioether N-14) | 0.03
CC(C)C[C@@H]1NC(=O)[C@H](CCCNC(=N)N)NC(=O)[C@@H](CC(C)C)NC(=O)[C@H](C)N(C)C(=O)[C@H](CCCNC(=N)N)NC(=O)[C@H](Cc2ccc(-c3ccccc3)cc2)NC(=O)[C@H](C(C)C)NC(=O)[C@H](Cc2c[nH]c3ccccc23)NC(=O)[C@H](CC(=O)O)NC(=O)[C@H](Cc2ccc(C#N)cc2)NC(=O)[C@H](Cc2ccccc2)NC(=O)CSC[C@@H](C(=O)N[C@@H](C)C(N)=O)NC(=O)[C@H]([C@@H](C)O)NC(=O)[C@H](C(C)C)NC1=O [Compound 1100] ({CH2CO}-F[Phe(4-CN)]DWV[Bip]R[NMeA][dL]RLVTCA-NH2; thioether N-14) | 0.53
CC(C)C[C@@H]1NC(=O)[C@H](CCCNC(=N)N)NC(=O)[C@@H](CC(C)C)NC(=O)[C@H](C)N(C)C(=O)[C@H](CCCNC(=N)N)NC(=O)[C@H](Cc2ccc(-c3ccccc3)cc2)NC(=O)[C@H](C(C)C)NC(=O)[C@H](Cc2c[nH]c3ccccc23)NC(=O)[C@H](CC(=O)O)NC(=O)[C@H](Cc2cccnc2)NC(=O)[C@H](Cc2ccccc2)NC(=O)CSC[C@@H](C(=O)N[C@@H](C)C(N)=O)NC(=O)[C@H]([C@@H](C)O)NC(=O)[C@H](C(C)C)NC1=O [Compound 1101] ({CH2CO}-F[3Pal]DWV[Bip]R[NMeA][dL]RLVTCA-NH2; thioether N-14) | 0.29
CC(C)C[C@@H]1NC(=O)[C@H](CCCNC(=N)N)NC(=O)[C@@H](Cc2cccnc2)NC(=O)[C@H](C)N(C)C(=O)[C@H](CCCNC(=N)N)NC(=O)[C@H](Cc2ccc(-c3ccccc3)cc2)NC(=O)[C@H](C(C)C)NC(=O)[C@H](Cc2c[nH]c3ccccc23)NC(=O)[C@H](CC(=O)O)NC(=O)[C@H](Cc2ccc(O)cc2)NC(=O)[C@H](Cc2ccccc2)NC(=O)CSC[C@@H](C(=O)N[C@@H](C)C(N)=O)NC(=O)[C@H]([C@@H](C)O)NC(=O)[C@H](C(C)C)NC1=O [Compound 1104] ({CH2CO}-FYDWV[Bip]R[NMeA][d3Pal]RLVTCA-NH2; thioether N-14) | 0.13
COc1ccc(C[C@H]2NC(=O)[C@H](C)N(C)C(=O)[C@H](CCCNC(=N)N)NC(=O)[C@H](Cc3ccc(-c4ccccc4)cc3)NC(=O)[C@H](C(C)C)NC(=O)[C@H](Cc3c[nH]c4ccccc34)NC(=O)[C@H](CC(=O)O)NC(=O)[C@H](Cc3ccc(O)cc3)NC(=O)[C@H](Cc3ccccc3)NC(=O)CSC[C@@H](C(=O)N[C@@H](C)C(N)=O)NC(=O)[C@H]([C@@H](C)O)NC(=O)[C@H](C(C)C)NC(=O)[C@H](CC(C)C)NC(=O)[C@H](CCCNC(=N)N)NC2=O)cc1 [Compound 1108] ({CH2CO}-FYDWV[Bip]R[NMeA][dY](Me)RLVTCA-NH2; thioether N-14) | 0.53
CC(C)C[C@@H]1NC(=O)[C@H](CCCNC(=N)N)NC(=O)[C@@H](CC(C)C)NC(=O)[C@H](C)N(C)C(=O)[C@H](CCCNC(=N)N)NC(=O)[C@H](Cc2ccc(-c3ccccc3)cc2)NC(=O)[C@H](C(C)C)NC(=O)[C@H](Cc2c[nH]c3ccccc23)NC(=O)[C@H](CC(=O)O)NC(=O)[C@H](Cc2ccc(O)c(I)c2)NC(=O)[C@H](Cc2ccccc2)NC(=O)CSC[C@@H](C(=O)N[C@@H](C)C(N)=O)NC(=O)[C@H]([C@@H](C)O)NC(=O)[C@H](C(C)C)NC1=O [Compound 1109] ({CH2CO}-F[Tyr(3-I)]DWV[Bip]R[NMeA][dL]RLVTCA-NH2; thioether N-14) | 0.12
